From paper PMC2887388 (Journal of natural products, 2009) come the findings set out here.

For assay [1], the system named is HT-29 human colon cancer cell line. The assay can be described thus: Cytotoxicity assay against HT-29 human colon cancer cell line. To be noted: HT-29, read-out: cytotoxicity ED50. It counts as cell-based.
In another assay the test system is HT-29 cells. The assay is described as follows: In vivo hollow fiber assay, HT-29 cells. Also on record: species or system human. To be noted: cells implanted at i.p. site; doses 2.5, 5, 10, 20 mg/kg.
For assay [2], the system named is LNCaP (hormone-dependent human prostate cancer) cells. The assay can be described thus: In vivo hollow fiber assay, LNCaP cells. To be noted: cells implanted at i.p. site; doses 2.5, 5, 10, 20 mg/kg.

Consider `COc1cc2oc3cc(O)c(OC)c(CC=C(C)C)c3c(=O)c2c2c1CC(O)C(C)(C)O2` (centres unmarked) [Compound 1, 11-hydroxy-3-O-methyl-1-isomangostin], for which the IC50 in assay [1] is greater than 10 µM.
Same read-out and setting: with `COc1c(O)cc2oc3cc(O)c4c(c3c(=O)c2c1CC=C(C)C)OC(C)(C)C(O)C4` (centres unmarked) [Compound 2, 11-hydroxy-1-isomangostin] the figure was greater than 10 µM.
For the compound `COc1c(O)cc2oc3cc(O)c(CC=C(C)C)c(O)c3c(=O)c2c1CC=C(C)C` [Compound 5, α-mangostin], in the assay with HT-29 cells, the “activity in hollow fiber assay (HT-29)” value is “inactive”. Besides, the “activity in hollow fiber assay (LNCaP)” value in assay [2] was “inactive”.
As for `COc1c(O)cc2oc3cc4c(c(O)c3c(=O)c2c1CC=C(C)C)[C@@H](c1c(O)c(CC=C(C)C)c(O)c2c(=O)c3c(CC=C(C)C)c(OC)c(O)cc3oc12)[C@H](C(C)(C)O)O4` [Compound 11, cratoxyxanthone], in assay [1], the IC50 was greater than 10 µM.
